Legend:
MDA-MB-231 = assay: 7 day proliferation assay, MDA-MB-231; type: cell-based; details: 1 μmol·l^−1, 7 days
Procedure: (§1) In this study, T47D cells were propagated in RPMI 1640 medium supplemented with 10% fetal bovine serum, 2 mmol^·l^−1 glutaMAX (Thermo Fisher Scientific, MA, USA), and penicillin/streptomycin (Thermo Fisher Scientific, Waltham, USA) and incubated in a 5% CO2-humidified atmosphere at 37° C. to the amount needed for the experiment. Two days prior to testing of compounds, growth medium was changed to medium without phenol red, supplemented with 2 mmol^·l^−1 Glutamax and 4% FBS depleted of lipophilic components (including the endogenous estrogenic substances) (Hyclone, GE Healthcare Life Sciences, USA). Two days after the medium replacement, the cells were harvested, counted and resuspended in a medium. Cells were dispensed with liquid dispenser Multidrop (Thermo Fisher Scientific, Waltham, USA), to the cell culture treated, 12-well plates (Corning Inc., NY, USA) at 100 000 cells/well in 1 mL of total media volume. […] After 7 days of cell cultivation with compounds, cells were harvested and counted. […]
(§2) Compounds 9 and 12 were tested in the proliferation assay with cell lines derived from the triple negative breast cancer (MDA-MB-231), AR-negative prostate cancer (PC3, DU145) and ovarian cancer (SK-OV-3, CaoV-3). […] At the end of the treatment, cells were harvested and counted. […]

[1] = molecular target: T1, progesterone receptor (PR) (Homo sapiens, UniProt P06401); assay: PR luciferase reporter assay in U2OS cells; type: cell-based; details: read-out: ANTAGONIST mode PR IC50
T1 construct: expressed in transfected cells
T1 sequence (P06401 whole entry): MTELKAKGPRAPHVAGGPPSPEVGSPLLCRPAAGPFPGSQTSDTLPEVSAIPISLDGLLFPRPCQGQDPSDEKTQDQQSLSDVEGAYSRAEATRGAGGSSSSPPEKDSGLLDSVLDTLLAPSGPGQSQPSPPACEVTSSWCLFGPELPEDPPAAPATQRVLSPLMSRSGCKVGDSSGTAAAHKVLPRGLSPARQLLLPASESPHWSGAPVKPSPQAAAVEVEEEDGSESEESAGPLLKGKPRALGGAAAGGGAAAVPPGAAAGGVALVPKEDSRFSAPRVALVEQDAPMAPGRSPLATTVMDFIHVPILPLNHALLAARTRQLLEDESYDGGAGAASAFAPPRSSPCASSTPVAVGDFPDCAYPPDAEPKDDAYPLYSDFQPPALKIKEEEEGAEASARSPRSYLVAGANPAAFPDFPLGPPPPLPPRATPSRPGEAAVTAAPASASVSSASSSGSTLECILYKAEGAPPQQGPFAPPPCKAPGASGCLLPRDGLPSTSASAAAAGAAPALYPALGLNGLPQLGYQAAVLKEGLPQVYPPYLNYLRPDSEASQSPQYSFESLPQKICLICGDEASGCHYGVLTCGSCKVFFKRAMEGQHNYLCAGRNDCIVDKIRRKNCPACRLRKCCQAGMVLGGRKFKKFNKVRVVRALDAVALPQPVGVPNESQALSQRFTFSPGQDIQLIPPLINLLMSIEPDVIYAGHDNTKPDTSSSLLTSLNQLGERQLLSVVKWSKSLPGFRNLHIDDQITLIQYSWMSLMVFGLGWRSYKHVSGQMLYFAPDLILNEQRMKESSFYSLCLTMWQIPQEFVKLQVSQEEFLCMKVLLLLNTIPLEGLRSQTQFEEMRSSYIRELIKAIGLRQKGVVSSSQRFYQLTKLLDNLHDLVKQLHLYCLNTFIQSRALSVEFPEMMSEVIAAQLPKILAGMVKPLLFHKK

DU145 = assay: 7 day proliferation assay, DU145; type: cell-based; details: 1 μmol·l^−1, 7 days
Procedure: as §1, §2

human 17βHSD type 5 = molecular target: T2, human 17βHSD type 5 (Homo sapiens, UniProt P42330); assay: Inhibition of recombinant 17βHSD type 5, tritium-labeled substrate conversion; type: biochemical; details: 1 μmol · l^−1 test substance
T2 construct: made in house; host or cells: bacteria (Escherichia coli); supernatant of the lysate
T2 sequence (P42330 1-323): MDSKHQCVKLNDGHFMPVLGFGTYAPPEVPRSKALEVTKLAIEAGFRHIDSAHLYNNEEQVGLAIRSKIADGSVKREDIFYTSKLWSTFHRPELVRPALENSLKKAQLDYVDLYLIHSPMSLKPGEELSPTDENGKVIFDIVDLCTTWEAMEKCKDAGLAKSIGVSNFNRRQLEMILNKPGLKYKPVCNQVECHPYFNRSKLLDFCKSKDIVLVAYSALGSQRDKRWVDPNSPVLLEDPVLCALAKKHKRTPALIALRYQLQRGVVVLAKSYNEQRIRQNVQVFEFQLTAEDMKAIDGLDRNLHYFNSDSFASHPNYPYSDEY

CaOV-3 = assay: 7 day proliferation assay, CaOV-3; type: cell-based; details: 1 μmol·l^−1, 7 days
Procedure: as §1, §2

androgen receptor (AR) = molecular target: T3, androgen receptor (AR) (Homo sapiens, UniProt P10275); assay: AR luciferase reporter assay in U2OS cells; type: cell-based; details: for AR antagonism in words: testing range 10 μmol·l^−1 to 1 nmol·l^−1
T3 construct: expressed in transfected cells
T3 sequence (P10275 1-920): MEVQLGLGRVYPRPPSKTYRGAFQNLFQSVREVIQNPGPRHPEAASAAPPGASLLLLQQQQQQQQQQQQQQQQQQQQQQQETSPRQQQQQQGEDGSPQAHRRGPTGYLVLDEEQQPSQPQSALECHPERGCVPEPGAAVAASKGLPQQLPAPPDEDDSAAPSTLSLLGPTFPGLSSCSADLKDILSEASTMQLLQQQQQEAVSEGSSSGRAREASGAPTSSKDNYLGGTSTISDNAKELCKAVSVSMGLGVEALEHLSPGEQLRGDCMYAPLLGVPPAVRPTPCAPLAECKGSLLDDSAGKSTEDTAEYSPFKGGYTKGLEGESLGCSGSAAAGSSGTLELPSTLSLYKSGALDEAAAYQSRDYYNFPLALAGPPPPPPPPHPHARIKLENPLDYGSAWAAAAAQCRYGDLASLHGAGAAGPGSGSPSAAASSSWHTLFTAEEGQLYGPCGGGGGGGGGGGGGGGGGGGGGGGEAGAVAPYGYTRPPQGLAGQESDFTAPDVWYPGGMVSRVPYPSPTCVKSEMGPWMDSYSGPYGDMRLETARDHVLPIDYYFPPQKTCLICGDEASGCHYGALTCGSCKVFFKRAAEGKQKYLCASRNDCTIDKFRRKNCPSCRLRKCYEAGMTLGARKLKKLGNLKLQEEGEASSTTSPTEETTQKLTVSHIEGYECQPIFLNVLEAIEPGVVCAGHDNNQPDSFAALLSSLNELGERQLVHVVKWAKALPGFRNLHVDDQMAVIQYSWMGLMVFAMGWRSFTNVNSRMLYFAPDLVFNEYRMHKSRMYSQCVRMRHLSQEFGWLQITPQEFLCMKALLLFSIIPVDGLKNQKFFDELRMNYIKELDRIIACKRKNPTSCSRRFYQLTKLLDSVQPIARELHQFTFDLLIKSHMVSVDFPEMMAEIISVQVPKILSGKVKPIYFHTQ

SK-OV-3 = assay: 7 day proliferation assay, SK-OV-3; type: cell-based; details: 1 μmol·l^−1, 7 days
Procedure: as §1, §2

| Structure (SMILES) | % of survived cells compared to untreated samples, MDA-MB-231 (MDA-MB-231) [%] | IC50 [1] [µM] | % of survived cells compared to untreated samples, DU145 (DU145) [%] | % of inhibition of human 17βHSD5 (human 17βHSD type 5) [%] | % of survived cells compared to untreated samples, CaOV-3 (CaOV-3) [%] | melting point [°C] | IC50 (androgen receptor (AR); antagonist mode, 1 nmol·l^−1 DHT) [µM] | AR antagonism in words (androgen receptor (AR)) | % of survived cells compared to untreated samples, SK-OV-3 (SK-OV-3) [%] |
| --- | --- | --- | --- | --- | --- | --- | --- | --- | --- |
| CCOc1ccc(CC[C@@H]2CC(=O)[C@@]3(C)CC[C@@H]4c5ccc(O)cc5CC[C@H]4[C@H]23)cc1 [Compound 12, 15β-(4-Ethoxyphenethyl)-3-hydroxy-estra-1,3,5(10)-trien-17-one] | 98 | 13.7 | 86 | 80 | 88 | 173 | 89.1 | antagonists of both types of receptors | 97 |
| COc1ccc(CC[C@@H]2CC(=O)[C@@]3(C)CC[C@@H]4c5ccc(O)cc5CC[C@H]4[C@H]23)cc1 [Compound 9, 3-Hydroxy-15β-(4-methoxyphenethyl)-estra-1,3,5 (10)-trien-17-one] | 106 | 13.6 | 98 | 91 | 94 |  |  | AR antagonist | 113 |

Source: patent US10759826B2, “15β-substituted estrone derivatives as selective inhibitors of 17β-hydroxysteroid-dehydrogenases, method of preparation and use thereof” (USTAV ORGANICKE CHEMIE A BIOCHEMIE AV CR, V.V.I., priority 2016, dated 2020)
